Measured values reported in patent US12365687B2 (Hoffmann-La Roche Inc., priority 2021, dated 2025).
Where two headings read alike, the source gives them in different places.

Tests used:
[1] = target: human GABAA α5β2γ1 receptor (Homo sapiens (Human), UniProt P31644+Q8N1C3); assay: Radioligand binding assay for γ1-containing GABAA subtypes, [3H]RO7239181 competition (α5β2γ1)
[2] = target: human GABAA α2β2γ1 receptor (Homo sapiens (Human), UniProt P47869+Q8N1C3); assay: Radioligand binding assay for γ1-containing GABAA subtypes, [3H]RO7239181 competition (α2β2γ1)
[3] = target: human GABAA α1β3γ2 receptor (Homo sapiens (Human), UniProt P14867+P18507); assay: Radioligand binding assay for γ2-containing GABAA subtypes, [3H]Flumazenil competition (α1β3γ2); settings: for γ2/γ1 Selectivity Ratio: Ki α1β3γ2 (nM)/Ki α2β2γ1 (nM); for LogSel: Log[Ki α1β3γ2 (nM)/Ki α2β2γ1 (nM)]
[4] = target: α2β2γ1 GABAA receptor subtype (Homo sapiens (Human), UniProt P47869+Q8N1C3); assay: Two-electrode voltage clamp electrophysiology in Xenopus oocytes expressing GABAA receptors (modulation of GABA EC20 current); format: cell-based; settings: for Efficacy (GABA)%: % modulation of GABA EC20 = 100*(Fold increase-1), α2β2γ1 oocytes, compound at approx. 30-fold Ki; for Fold increase h-GABA-A α2β2γ1 oocyte @ 30-fold Ki: Xenopus oocytes expressing α2β2γ1, compound at approx. 30-fold its Ki α2β2γ1, GABA EC20 current
Summary of the method: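 Each concentration was tested on ≥3 oocytes held at −80 mV at room temperature, recorded 3-5 days post-injection. A control and a test response to EC20 GABA (1.5 min each) were superimposed and their point-by-point ratio taken. Peak ratio reported as % modulation of GABA EC20 = 100×(fold increase−1).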

[5] = Ki h-GABAA α2β2γ1, [3H]RO7239181 competition binding, human GABAA α2β2γ1
[6] = Ki h-GABAA α2β2γ1, displacement of [3H]RO7239181, membranes of HEK293F cells expressing human receptors, means of two determinations

Row | Structure (SMILES) | Ki [1] | Ki [2, 5] | Ki [2, 6] | Ki [3] | γ2/γ1 Selectivity Ratio [3] | LogSel [3] | Efficacy (GABA)% [4] | Fold increase h-GABA-A α2β2γ1 oocyte @ 30-fold Ki [4] | Ki ([2]; Ki h-GABAA α2β2γ1, Table 3, reference compounds) | γ2/γ1 Selectivity Ratio ([3]; Table 3) | LogSel ([3]; Table 3) | Ki ([3]; read-out: Ki h-GABAA α1β3γ2, Table 3, reference compounds)
1 | C[C@@H]1N=C(c2c(F)cccc2F)c2c(ccc(Cl)c2Cl)-n2nc(C(=O)N3CC[C@@H](O)C3)nc21 [Example 47, [(4S)-7,8-dichloro-6-(2,6-difluorophenyl)-4-methyl-4H-[1,2,4]triazolo[1,5-a][1,4]benzodiazepin-2-yl]-[(3R)-3-hydroxypyrrolidin-1-yl]methanone] | 1.44 nM | 3.4 nM | 3.43 nM | 1010 nM | 294.7 | 2.47 | 74% | 1.74 | – | – | – | –
2 | OCc1cn2c(n1)CN=C(c1c(F)cccc1F)c1c-2ccc(Br)c1Cl [Example 4, (8-bromo-7-chloro-6-(2,6-difluorophenyl)-4H-benzo[f]imidazo[1,2-a][1,4]diazepin-2-yl)methanol] | 1.14 nM | 8.8 nM | 8.8 nM | 216 nM | 24.4 | 1.39 | 105% | 2.05 | – | – | – | –
3 | C[C@@H]1N=C(c2ncccc2F)c2c(ccc(C(F)(F)F)c2Cl)-n2cc(C(=O)N3CC(F)C3)nc21 [Example 161, (3-fluoroazetidin-1-yl)-[(4S)-7-chloro-6-(3-fluoro-2-pyridyl)-4-methyl-8-(trifluoromethyl)-4H-imidazo[1,2-a][1,4]benzodiazepin-2-yl]methanone] | 21.3 nM | 72.8 nM | 72.7 nM | > 30000 nM | 412.4 | 2.62 | 165% | 2.65 | – | – | – | –
4 | C[C@@H]1N=C(c2c(F)cccc2F)c2c(ccc(Cl)c2Cl)-n2nc(C(=O)N3CC4(COC4)C3)nc21 [Example 93, [(4S)-7,8-dichloro-6-(2,6-difluorophenyl)-4-methyl-4H-[1,2,4]triazolo[1,5-a][1,4]benzodiazepin-2-yl]-(2-oxa-6-azaspiro[3.3]heptan-6-yl)methanone] | 2.25 nM | 3.3 nM | 3.3 nM | 1290 nM | 390.6 | 2.59 | 75% | 1.75 | – | – | – | –
5 | C[C@@H]1N=C(c2c(F)cccc2F)c2c(ccc(Cl)c2Cl)-n2nc(C(=O)N3CC(C#N)C3)nc21 [Example 41, 1-[(4S)-7,8-dichloro-6-(2,6-difluorophenyl)-4-methyl-4H-[1,2,4]triazolo[1,5-a][1,4]benzodiazepine-2-carbonyl]azetidine-3-carbonitrile] | 0.74 nM | 3.3 nM | 3.28 nM | 389 nM | 118.6 | 2.07 | 67% | 1.67 | – | – | – | –
6 | C[C@@H]1N=C(c2ncccc2F)c2c(ccc(C(F)(F)F)c2Cl)-n2cc(C(=O)N[C@H]3C[C@H](O)C3)nc21 [Example 165, (4S)-7-chloro-6-(3-fluoro-2-pyridyl)-N-(trans-3-hydroxycyclobutyl)-4-methyl-8-(trifluoromethyl)-4H-imidazo[1,2-a][1,4]benzodiazepine-2-carboxamide] | 9.55 nM | 36.2 nM | 43.3 nM | 7770 nM | 179.6 | 2.25 | 183% | 2.83 | – | – | – | –
7 | C[C@H](O)CNC(=O)c1nc2n(n1)-c1ccc(Cl)c(Cl)c1C(c1c(F)cccc1F)=N[C@H]2C [Example 63, (4S)-7,8-dichloro-6-(2,6-difluorophenyl)-4-methyl-N-[(2S)-2-hydroxypropyl]-4H-[1,2,4]triazolo[1,5-a][1,4]benzodiazepine-2-carboxamide] | 1.33 nM | 4.2 nM | 4.25 nM | 606 nM | 142.6 | 2.15 | 79% | 1.79 | – | – | – | –
8 | [2H]C([2H])([2H])OC1CN(C(=O)c2nc3n(n2)-c2ccc(Cl)c(Cl)c2C(c2c(F)cccc2F)=N[C@H]3C)C1 [Example 17, [(4S)-7,8-dichloro-6-(2,6-difluorophenyl)-4-methyl-4H-[1,2,4]triazolo[1,5-a][1,4]benzodiazepin-2-yl]-[3-(trideuteriomethoxy)azetidin-1-yl]methanone] | 1.3 nM | 2.6 nM | 2.59 nM | 579 nM | 223.3 | 2.35 | 44% | 1.44 | – | – | – | –
9 | CC1CN(C(=O)c2nc3n(n2)-c2ccc(Cl)c(Cl)c2C(c2ncccc2F)=N[C@H]3C)C1 [Example 87, [(4S)-7,8-dichloro-6-(3-fluoro-2-pyridyl)-4-methyl-4H-[1,2,4]triazolo[1,5-a][1,4]benzodiazepin-2-yl]-(3-methylazetidin-1-yl)methanone] | 5.5 nM | 55.2 nM | 55.2 nM | 3290 nM | 59.7 | 1.78 | 84% | 1.84 | – | – | – | –
10 | C[C@@H]1N=C(c2ncccc2F)c2c(ccc(Cl)c2Cl)-n2nc(C(=O)N3CC4(CCOCC4)C3)nc21 [Example 95, 7-oxa-2-azaspiro[3.5]nonan-2-yl-[(4S)-7,8-dichloro-6-(3-fluoro-2-pyridyl)-4-methyl-4H-[1,2,4]triazolo[1,5-a][1,4]benzodiazepin-2-yl]methanone] | 20.2 nM | 47.6 nM | 47.6 nM | 9440 nM | 198.4 | 2.30 | 126% | 2.26 | – | – | – | –
11 | CNC(=O)c1cn2c(n1)CN=C(c1ncccc1F)c1c-2ccc(Cl)c1Cl [Example 12, 7,8-dichloro-6-(3-fluoro-2-pyridyl)-N-methyl-4H-imidazo[1,2-a][1,4]benzodiazepine-2-carboxamide] | 9.3 nM | 36.7 nM | 36.7 nM | 506 nM | 13.8 | 1.14 | 125% | 2.25 | – | – | – | –
12 | C[C@@H]1N=C(c2c(F)cccc2F)c2c(ccc(Cl)c2Cl)-n2nc(C(=O)NCC(F)F)nc21 [Example 59, (4S)-7,8-dichloro-N-(2,2-difluoroethyl)-6-(2,6-difluorophenyl)-4-methyl-4H-[1,2,4]triazolo[1,5-a][1,4]benzodiazepine-2-carboxamide] | 1.26 nM | 7 nM | 7 nM | 640 nM | 90.9 | 1.96 | 74% | 1.74 | – | – | – | –
13 | C[C@@H]1N=C(c2ncccc2F)c2c(ccc(C(F)(F)F)c2Cl)-n2cc(C(=O)N3CC(C)(O)C3)nc21 [Example 160, (3-hydroxy-3-methyl-azetidin-1-yl)-[(4S)-7-chloro-6-(3-fluoro-2-pyridyl)-4-methyl-8-(trifluoromethyl)-4H-imidazo[1,2-a][1,4]benzodiazepin-2-yl]methanone] | 19.2 nM | 66.4 nM | 66.3 nM | 13300 nM | 201.1 | 2.30 | 177% | 2.77 | – | – | – | –
14 | C[C@@H]1N=C(c2c(F)cccc2F)c2c(ccc(Cl)c2Cl)-n2nc(N3CCCC3=O)nc21 [Example 50, 1-[(4S)-7,8-dichloro-6-(2,6-difluorophenyl)-4-methyl-4H-[1,2,4]triazolo[1,5-a][1,4]benzodiazepin-2-yl]pyrrolidin-2-one] | 0.89 nM | 4.5 nM | 4.5 nM | 376 nM | 83.5 | 1.92 | 60% | 1.60 | – | – | – | –
15 | C[C@@H]1N=C(c2c(F)cccc2F)c2c(ccc(Cl)c2Cl)-n2nc(N3CCS(=O)(=O)CC3)nc21 [Example 52, 4-[(4S)-7,8-dichloro-6-(2,6-difluorophenyl)-4-methyl-4H-[1,2,4]triazolo[1,5-a][1,4]benzodiazepin-2-yl]-1,4-thiazinane 1,1-dioxide] | 1.26 nM | 12.4 nM | 12.4 nM | 578 nM | 46.6 | 1.67 | 41% | 1.41 | – | – | – | –
16 | CN(C)C(=O)c1nc2n(n1)-c1ccc(Cl)c(Cl)c1C(c1c(F)cccc1F)=NC2 [Example 9, 7,8-dichloro-6-(2,6-difluorophenyl)-N,N-dimethyl-4H-[1,2,4]triazolo[1,5-a][1,4]benzodiazepine-2-carboxamide] | 1.15 nM | 5.5 nM | 5.5 nM | 989 nM | 179.8 | 2.25 | 123% | 2.23 | 5.5 nM | 179.8 | 2.25 | 989 nM
